Literature values as cited in publication PMC9332470, “Production and Selection of Antibody–Antigen Pairs for the Development of Immunoenzyme Assay and Lateral Flow Immunoassay Methods for Carbofuran and Its Analogues” (Biosensors, 2022).
Converted amounts (≈) assume the structure as drawn.

What was measured:
[1] = test system: specific antibody against carbofuran; details: double-label time-resolved fluorescent strip; cited from earlier work
[2] = test system: sol–gel-entrapped antibody; details: label-free electrochemical immunosensor; cited from earlier work
[3] = test system: mAb with the immunogen BFNB-BSA; details: heterologous coating antigen BFNH-OVA; cited from earlier work

For `CNC(=O)Oc1cccc2c1OC(C)(C)C2` [carbofuran], the detection limit [1] is given as 0.76 ng/mL, the detection limit [2] is given as 0.33 ng/mL and the “IC50 (ic-ELISA)” value [3] is given as 0.66 ng/mL (≈ 2.98 nM).
